In patent US8808702B2, “Sulfide, sulfoxide and sulfone chalcone analogues, derivatives thereof and therapeutic uses thereof” (Temple University-of the Commonwealth System of Higher …, priority 2006, dated 2014):
Where two headings read alike, the source gives them in different places.

Tests used:
[1] = tested on: K562 (chronic myelogenous leukaemia); test: Effect of compounds on tumor cell lines (assay of Latham et al.), K562; type: cell-based; details: K562 cells, read-out: K 562 potency (IC50)
How it was run: (§1)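 K562 or DU145 cells plated at 2.5×10^4 cells/well, treated 24 h later with compound in DMSO at 1 μM to 100 μM (0.1 μM to 100 μM for one compound). Activity judged by microscopic observation after 96 h; where needed, viable cells counted by trypan blue exclusion.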

DU145 (prostate cancer) = test: Effect of compounds on tumor cell lines (assay of Latham et al.), DU145; type: cell-based; details: DU145 cells, read-out: DU 145 potency (IC50)
How it was run: as §1

[2] = 96 hours after treatment, 1 μM to 100 μM
[3] = Table 1, examined 96 hours after treatment, 1 μM to 100 μM in DMSO
[4] = Table 4, examined 96 hours after treatment, 1 μM to 100 μM in DMSO

SMILES | IC50 [1, 2] [µM] | IC50 (DU145 (prostate cancer); [2]) [µM] | other results
Cc1ccc(C=C(SCc2ccc(Cl)cc2)C(=O)c2ccc([N+](=O)[O-])cc2)s1 [Example 231] | 25 to 50 | 25 to 50 | 
CCOc1ccc(C=C(SCc2ccc(Cl)c(Cl)c2)C(=O)c2ccc(Cl)cc2)cc1OC [Example 143] | 1 to 10 | 25 to 50 | 
O=C(C(=Cc1ccc(OCc2ccccc2)cc1)SCc1ccc(Cl)cc1)c1ccc(Cl)cc1 [Example 212] | 10 to 25 | 1 to 10 | 
O=C(C(=Cc1ccc(O)c(Br)c1)Sc1ccc(Br)cc1)c1c(F)c(F)c(F)c(F)c1F [Example 27] |  |  | IC50 [1, 3]: 1 to 10 µM; IC50 (DU145 (prostate cancer); [3]): 1 to 10 µM
O=C(O)c1ccc(C(=O)C(=Cc2ccc(Br)c([N+](=O)[O-])c2)SCc2ccc(Cl)cc2Cl)cc1 [Example 299] | ≤ 1 | 1 to 10 | 
CN(C)c1ccc(C=C(SCc2ccccc2Cl)C(=O)c2ccc(Cl)cc2)cc1 [Example 127] | 50 to 100 | > 100 | 
O=C(O)c1ccc(C(=O)C(=Cc2ccc(Cl)c([N+](=O)[O-])c2)SCc2ccc(Cl)cc2)cc1 [Example 216] | ≤ 1 | 1 to 10 | 
O=C(O)c1ccc(C(=O)/C(=C\c2ccc(F)c([N+](=O)[O-])c2)SCc2ccccc2)cc1 [Example 353] | ≤ 1 | 1 to 10 | 
O=C(O)c1ccc(C(=O)C(=Cc2ccc(F)c([N+](=O)[O-])c2)Sc2c(F)c(F)c(F)c(F)c2F)cc1 [Example 112] |  |  | IC50 [1, 3]: ≤ 1 µM; IC50 (DU145 (prostate cancer); [3]): 1 to 10 µM
CCOC(=O)c1c(C)[nH]c(/C=C(/SCc2ccc(Br)cc2)C(=O)c2ccc(Br)cc2)c1C [Example 170] | 25 to 50 | 50 to 100 | 
N#Cc1ccc(C(=O)/C(=C\c2ccc(O)c([N+](=O)[O-])c2)SCc2ccc(Br)cc2)cc1 [Example 182] | 10 to 25 | 10 to 25 | 
CN(C)c1ccc(C=C(SCc2ccc(Cl)cc2)C(=O)c2ccc(C(=O)O)cc2)cc1 [Example 209] | 1 to 10 | 1 to 10 | 
Cc1ccc(CSC(=Cc2ccc(F)cc2C(F)(F)F)C(=O)c2ccc(Cl)cc2)cc1 [Example 290] | 50 to 100 | 50 to 100 | 
Cc1ccc(SC(=Cc2c[nH]c3ccc(Cl)cc23)C(=O)c2ccc(Br)cc2)cc1 [Example 107] |  |  | IC50 [1, 3]: 1 to 10 µM; IC50 (DU145 (prostate cancer); [3]): 1 to 10 µM
CCOc1ccc(C=C(SCc2ccccc2Cl)C(=O)c2ccc(Cl)cc2)cc1OC [Example 131] | 1 to 10 | 50 to 100 | 
O=C(C(=Cc1ccc(Cl)cc1)SCc1ccc(Cl)cc1Cl)c1ccc(Cl)cc1 [Example 122] | 1 to 10 | 10 to 25 | 
O=C(/C(=C\c1ccc(O)c([N+](=O)[O-])c1)SCc1ccc(Br)cc1)c1ccc(C(F)(F)F)cc1 [Example 186] | 1 to 10 | 10 to 25 | 
CSc1ccc(C=C(SCc2ccc(Cl)cc2)C(=O)c2ccc(C(=O)O)cc2)cc1 [Example 223] | > 100 | > 100 | 
Cc1ccc(SC(=Cc2ccc(F)c(C)c2)C(=O)c2ccc(Br)cc2)cc1 [Example 95] |  |  | IC50 [1, 3]: 1 to 10 µM; IC50 (DU145 (prostate cancer); [3]): 25 to 50 µM
O=C(/C(=C\c1cc(I)c(O)c(I)c1)SCc1ccc(Br)cc1)c1ccc(Br)cc1 [Example 173] | 1 to 10 | 1 to 10 | 
O=C(C(=Cc1ccc(Br)cc1)SCc1ccccc1Cl)c1ccc(Cl)cc1 [Example 129] | 1 to 10 | 10 to 25 | 
O=C(O)c1ccc(C(=O)C(=Cc2ccc([N+](=O)[O-])c(O)c2)SCc2ccc(Br)cc2)cc1 [Example 156] | 1 to 10 | 10 to 25 | 
COc1ccc(C=C(SCc2ccc(F)cc2)C(=O)c2ccc(C(=O)O)cc2)cc1O [Example 244] | 1 to 10 | 10 to 25 | 
O=C(C(=Cc1ccc([N+](=O)[O-])cc1)SCc1ccc(Cl)cc1)c1ccc(Cl)cc1 [Example 326] | 1 to 10 | 1 to 10 | 

SMILES | IC50 [1, 2] [µM] | IC50 (DU145 (prostate cancer); [2]) [µM] | other results
COc1ccccc1C=C(SCc1ccc(C)cc1)C(=O)c1ccc(Cl)cc1 [Example 279] | 10 to 25 | 10 to 25 | 
COc1cc(C=C(Sc2ccc(Br)cc2)C(=O)c2ccc(Br)cc2)ccc1O [Example 41] |  |  | IC50 [1, 3]: 1 to 10 µM; IC50 (DU145 (prostate cancer); [3]): 1 to 10 µM
COc1cc(OC)c(C=C(SCc2ccc(F)cc2)C(=O)c2ccc(Br)cc2)c(OC)c1 [Example 233] | 1 to 10 | 1 to 10 | 
COc1ccc(CS/C(=C/c2ccc(F)cc2)C(=O)c2ccc(Cl)cc2)cc1 [Example 345] | 1 to 10 | 10 to 25 | 
Cc1ccc(CSC(=Cc2ccc[nH]2)C(=O)c2ccc(Cl)cc2)cc1 [Example 280] | 1 to 10 | 25 to 50 | 
Cc1ccc(SC(=Cc2sccc2C)C(=O)c2ccc(Br)cc2)cc1 [Example 82] |  |  | IC50 [1, 3]: 50 to 100 µM; IC50 (DU145 (prostate cancer); [3]): > 100 µM
COc1ccc(SC(=Cc2ccc(Cl)cc2Cl)C(=O)c2ccc(Br)cc2)cc1 [Example 61] |  |  | IC50 [1, 3]: 1 to 10 µM; IC50 (DU145 (prostate cancer); [3]): 1 to 10 µM
O=C(C(=Cc1ccc(Cl)cc1)Sc1ccc(Br)cc1)c1ccc(Br)cc1 [Example 38] |  |  | IC50 [1, 3]: 1 to 10 µM; IC50 (DU145 (prostate cancer); [3]): 1 to 10 µM
CN(C)c1ccc(C=C(Sc2ccccc2Br)C(=O)c2ccc(Br)cc2)cc1 [Example 12] |  |  | IC50 [1, 3]: > 100 µM; IC50 (DU145 (prostate cancer); [3]): > 100 µM
O=C(/C(=C\c1ccc(O)c([N+](=O)[O-])c1)S(=O)(=O)Cc1ccc(Cl)cc1)c1ccc(Cl)cc1 [Example 393] |  |  | IC50 [1, 4]: 25 to 50 µM; IC50 (DU145 (prostate cancer); [4]): 25 to 50 µM
O=C(O)c1ccc(C(=O)/C(=C\c2ccc(Br)cc2)SCc2ccc(Br)cc2)cc1 [Example 166] | 1 to 10 | 1 to 10 | 
O=C(/C(=C\c1ccc(Cl)cc1Cl)Sc1ccc(Br)cc1)c1ccc(Br)cc1 [Example 15, (E)-1-(4-Bromophenyl)-2-(4-bromophenylthio)-3-(2,4-dichlorophenyl)-prop-2-en-1-one] |  |  | IC50 ([1]; Homo sapiens, Table 1, examined 96 hours after treatment, 1 μM to 100 μM in DMSO): 1 to 10 µM; IC50 (DU145 (prostate cancer); Homo sapiens, DU-145, Table 1, examined 96 hours after treatment, 1 μM to 100 μM in DMSO): 1 to 10 µM
O=C(C(=Cc1cc(Cl)cc(Cl)c1Cl)Sc1ccccc1Br)c1ccc(Cl)cc1 [Example 3] |  |  | IC50 [1, 3]: 50 to 100 µM; IC50 (DU145 (prostate cancer); [3]): 25 to 50 µM
Cc1ccc(CSC(=Cc2ccc(Cl)cc2)C(=O)c2ccc(Cl)cc2)cc1 [Example 288] | 1 to 10 | 10 to 25 | 
COc1ccccc1C=C(SCc1ccccc1F)C(=O)c1ccc(Cl)cc1 [Example 133] | 1 to 10 | 10 to 25 | 
Cc1ccc(CSC(=Cc2ccccc2OCc2ccccc2)C(=O)c2ccc(Cl)cc2)cc1 [Example 274] | 1 to 10 | 1 to 10 | 
Cc1ccc(CSC(=Cc2sccc2C)C(=O)c2ccc(Cl)cc2)cc1 [Example 283] | 10 to 25 | 10 to 25 | 
Cc1cc(C)cc(C=C(SCc2ccc(Br)cc2)C(=O)c2ccc(Cl)cc2)c1 [Example 149] | 10 to 25 | 10 to 25 | 
COc1ccc(C=C(SCc2ccccc2Cl)C(=O)c2ccc(Cl)cc2)c(OC)c1OC [Example 125] | 1 to 10 | 10 to 25 | 
O=C(C(=Cc1c(O)cc(O)cc1O)Sc1ccccc1Br)c1ccc(Br)cc1 [Example 4] |  |  | IC50 [1, 3]: > 100 µM; IC50 (DU145 (prostate cancer); [3]): > 100 µM
O=C(C(=Cc1ccc(F)cc1F)Sc1ccc(Br)cc1)c1ccc(Cl)cc1 [Example 18] |  |  | IC50 [1, 3]: 1 to 10 µM; IC50 (DU145 (prostate cancer); [3]): 1 to 10 µM
Cc1ccc(SC(=Cc2c(O)cc(O)cc2O)C(=O)c2ccc(Cl)cc2)cc1 [Example 68] |  |  | IC50 [1, 3]: > 100 µM; IC50 (DU145 (prostate cancer); [3]): > 100 µM
O=C(/C(=C\c1ccc(F)c([N+](=O)[O-])c1)SCc1ccc(F)cc1)c1ccc(SCc2ccc(F)cc2)c([N+](=O)[O-])c1 [Example 335] | 1 to 10 | 10 to 25 | 
CCN(CC)CCNC(=O)c1c(C)[nH]c(C=C(SCc2ccc(F)cc2)C(=O)c2ccc(C(=O)O)cc2)c1C [Example 248] | 50 to 100 | 50 to 100 | 
